Source: ChEMBL document CHEMBL1795300, “Fluorescent phosphoinositide 3-kinase inhibitors suitable for monitoring of intracellular distribution” (Bioorg Med Chem, 2011)

Legend:
[1] = Inhibition of PI3K assessed as amount of ADP produced preincubated with compound and L-alpha-phosphatidylinositol for 5 mins by Glo Max luminescent kinase assay
T47D = assay: Antiproliferative activity against human T47D cells after 48 hrs by MTT assay; format: functional, cell-based
SK-BR-3 = assay: Antiproliferative activity against human SKBR3 cells after 48 hrs by MTT assay; format: functional, cell-based; details: SK-BR-3, 48 h
MCF7 = assay: Antiproliferative activity against human MCF7 cells after 48 hrs by MTT assay; format: functional, cell-based; details: MCF7, 48 h

IC50 [1]	IC50 (T47D)	IC50 (SK-BR-3)	IC50 (MCF7)	Compound
22 µM	–	–	–	COc1ccc(-n2c(-c3ccc(N(C)C)cc3)nc3c2c(=O)n(C)c(=O)n3C)cc1F
0.51 µM	–	–	–	COc1ccc(-n2c(-c3ccc(NC(C)=O)cc3)nc3c2c(=O)n(C)c(=O)n3C)cc1OC
13 µM	–	–	–	COc1cc(NC(C)=O)ccc1-c1nc2c(c(=O)n(C)c(=O)n2C)n1-c1ccc(Cl)c(Cl)c1
0.28 µM	–	–	–	CC(=O)Nc1ccc(-c2nc3c(c(=O)n(C)c(=O)n3C)n2-c2ccc(Cl)c(Cl)c2)cc1
0.017 µM	4.7 µM	> 25 µM	11.6 µM	CNC(=O)Nc1ccc(-c2nc3c(c(=O)n(C)c(=O)n3C)n2-c2ccc(OC)c(F)c2)cc1
22 µM	–	–	–	COc1cc(N(C)C)ccc1-c1nc2c(c(=O)n(C)c(=O)n2C)n1-c1cccc(F)c1
12.5 µM	–	–	–	CC(=O)Nc1ccc(-c2nc3c(c(=O)n(C)c(=O)n3C)n2-c2ccccc2)cc1
> 30 µM	–	–	–	COc1ccc(-n2c(-c3cnccc3NS(C)(=O)=O)nc3c2c(=O)n(C)c(=O)n3C)cc1
0.068 µM	0.9 µM	15.4 µM	1.7 µM	CC(=O)Nc1ccc(-c2nc3c(c(=O)n(C)c(=O)n3C)n2-c2cccc(F)c2)cc1
0.031 µM	1.6 µM	11.5 µM	2.8 µM	COc1ccc(-n2c(-c3ccc(NC(C)=O)cc3)nc3c2c(=O)n(C)c(=O)n3C)cc1F
> 30 µM	–	–	–	CN(C)c1ccc(-c2nc3c(c(=O)n(C)c(=O)n3C)n2-c2ccc(Cl)c(Cl)c2)cc1
0.15 µM	3.7 µM	> 25 µM	9.4 µM	COc1ccc(-n2c(-c3ccc(NC(C)=O)cc3)nc3c2c(=O)n(C)c(=O)n3C)cc1
25 µM	–	–	–	COc1ccc(-n2c(-c3ccc(N(C)C)cc3)nc3c2c(=O)n(C)c(=O)n3C)cc1OC
4.5 µM	–	–	–	COc1ccc(-n2c(-c3cncc(NS(C)(=O)=O)c3)nc3c2c(=O)n(C)c(=O)n3C)cc1

Further lines, the compound ahead of its results:

Compound	IC50 [1]	IC50 (T47D)	IC50 (SK-BR-3)	IC50 (MCF7)
COc1ccc(-n2c(-c3cncc(NS(=O)(=O)c4ccc(C)cc4)c3)nc3c2c(=O)n(C)c(=O)n3C)cc1	0.22 µM	–	–	–
CN(C)c1ccc(-c2nc3c(c(=O)n(C)c(=O)n3C)n2-c2cccc(F)c2)cc1	20 µM	–	–	–
COC(=O)Nc1ccc(-c2nc3c(c(=O)n(C)c(=O)n3C)n2-c2ccc(OC)cc2)cc1	0.21 µM	1.7 µM	> 25 µM	4.2 µM
COc1ccc(-n2c(-c3ccc(N(C)C)cc3)nc3c2c(=O)n(C)c(=O)n3C)cc1	22 µM	–	–	–
COc1ccc(-n2c(-c3cccc(NS(C)(=O)=O)c3)nc3c2c(=O)n(C)c(=O)n3C)cc1	3.2 µM	–	–	–
COc1ccc(-n2c(-c3cncc(NS(=O)(=O)c4ccccc4)c3)nc3c2c(=O)n(C)c(=O)n3C)cc1	0.091 µM	–	–	–
CN(C)c1ccc(-c2nc3c(c(=O)n(C)c(=O)n3C)n2-c2cc(F)cc(F)c2)cc1	25 µM	–	–	–
COc1cc(N(C)C)ccc1-c1nc2c(c(=O)n(C)c(=O)n2C)n1-c1cc(F)cc(F)c1	15 µM	–	–	–
COc1ccc(-n2c(-c3ccc(NC(C)=O)c(OC)c3)nc3c2c(=O)n(C)c(=O)n3C)cc1F	8.5 µM	–	–	–
CC(=O)Nc1ccc(-c2nc3c(c(=O)n(C)c(=O)n3C)n2-c2ccc(C)cc2)cc1	0.37 µM	–	–	–
